From patent US20250042911A1, “NOVEL BENZOPYRAN DERIVATIVE AND USE THEREOF” (SPARK BIOPHARMA, INC, priority 2021, published 2025)

System: human M2 macrophages
Assay: Inhibition of human M2 macrophage activity, hCCL22 in culture supernatant by ELISA
Format: cell-based
Conditions: for inhibition at 10 µM / inhibition at 5 µM: Macrophage, 72 hours; for inhibition at 10 µM: hCCL22 inhibitory activity at 10 μM; for EC50: hCCL22 secretion, THP-1 derived M2-like macrophages, compound present during 72 hours of differentiation; for inhibition at 5 µM: hML22 inhibitory activity at 5 μM
Method: To obtain human M2 macrophages, human monocytes (THP-1 monocyte, CD4 expression) were stabilized in a 96-well plate for 24 hours and then incubated in culture media containing 100 ng/mL phorbal 12-myristate-13-acetate (PMA; Sigma, P8139) for 24 hours to differentiate into M0 macrophages (macrophage-like phenotype). It was confirmed that differentiated M0 macrophages had reduced CD4 expression and expressed CD11b. M0 macrophages in the plate well were washed once with culture media and incubated in culture media containing 25 ng/mL hIL-4 (Peprotech, 200-04-50) and 25 ng/mL hIL-13 (Peprotech, 200-13-50) for 72 hours to differentiate into M2-like macrophages. Test compounds were diluted by concentration in M2 differentiation media and treated simultaneously during a differentiation period of 72 hours. The inhibitory effect of the test compounds on M2 macrophages was determined by measuring hCCL22 in the medium culture supernatant cultured for 72 hours using an ELISA assay (R&D system, DMD00). The results of the activity measurements are represented in Table 3 (EC50), Table 4 ([…] inhibitory activity at 5 μM) and Table 5 (hCCL22 inhibitory activity at 10 μM).

Row | SMILES | inhibition at 10 µM | EC50 | inhibition at 5 µM
1 | CC(=O)c1ccc(-n2c(=O)n3n(c2=O)C2C(=CC3)C(C)(C)Oc3c2cc(Cl)c(O)c3Cl)cc1 (centres unmarked) [Example 11, 2-(4-acetylphenyl)-9,11-dichloro-10-hydroxy-7,7-dimethyl-5,12b-dihydro-1H,7H-chromeno[4,3-c][1,2,4]triazolo[1,2-a]pyridazine-1,3(2H)-dione] | 78.1% | – | –
2 | CC1(C)Oc2cc(O)ccc2C2C1=CCn1c(=O)n(-c3cccc(F)n3)c(=O)n12 (centres unmarked) [Example 12, 2-(6-fluoropyridin-2-yl)-10-hydroxy-7,7-dimethyl-5,12b-dihydro-1H,7H-chromeno[4,3-c][1,2,4]triazolo[1,2-a]pyridazine-1,3(2H)-dione] | 16.8% | – | –
3 | CC(=O)c1ccc(-n2c(=O)n3n(c2=O)C2C(=CC3)C(C)(C)Oc3cc(N)ccc32)cc1 (centres unmarked) [Example 7, 2-(4-acetylphenyl)-10-amino-7,7-dimethyl-5,12b-dihydro-1H,7H-chromeno[4,3-c][1,2,4]triazolo[1,2-a]pyridazine-1,3(2H)-dione] | 83.4% | 4.5 µM | –
4 | CC(=O)c1ccc(-n2c(=O)n3n(c2=O)C2C(=CC3)C(C)(C)Oc3cc(NS(N)(=O)=O)ccc32)cc1 (centres unmarked) [Example 9, N-(2-(4-acetylphenyl)-7,7-dimethyl-1,3-dioxo-2,3,5,12b-tetrahydro-1H,7H-chromeno[4,3-c][1,2,4]triazolo[1,2-a]pyridazin-10-yl)sulfuric diamide] | 74.8% | – | –
5 | CC(=O)c1ccc(-n2c(=O)n3n(c2=O)C2C(=CC3)C(C)(C)Oc3cc(N4CCN(C)CC4)ccc32)cc1 (centres unmarked) [Example 51, 2-(4-acetylphenyl)-7,7-dimethyl-10-(4-methylpiperazin-1-yl)-5,12b-dihydro-1H,7H-chromeno[4,3-c][1,2,4]triazolo[1,2-a]pyridazine-1,3(2H)-dione] | – | 33.5 µM | –
6 | CC(=O)c1ccc(-n2c(=O)n3n(c2=O)C2C(=CC3)C(C)(C)Oc3cc(NC(C)C)ccc32)cc1 (centres unmarked) [Example 29, 2-(4-acetylphenyl)-10-(isopropylamino)-7,7-dimethyl-5,12b-dihydro-1H,7H-chromeno[4,3-c][1,2,4]triazolo[1,2-a]pyridazine-1,3(2H)-dione] | 95.2% | 3.3 µM | –
7 | CC(=O)c1ccc(-n2c(=O)n3n(c2=O)C2C(=CC3)C(C)(C)Oc3cc(N4CCCC4)ccc32)cc1 (centres unmarked) [Example 34, 2-(4-acetylphenyl)-7,7-dimethyl-10-(pyrrolidin-1-yl)-5,12b-dihydro-1H,7H-chromeno[4,3-c][1,2,4]triazolo[1,2-a]pyridazine-1,3(2H)-dione] | 73.7% | 7.7 µM | –
8 | CC(=O)c1ccc(-n2c(=O)n3n(c2=O)C2C(=CC3)C(C)(C)Oc3c2cc(Br)c(N)c3Br)cc1 (centres unmarked) [Example 28, 2-(4-acetylphenyl)-10-amino-9,11-dibromo-7,7-dimethyl-5,12b-dihydro-1H,7H-chromeno[4,3-c][1,2,4]triazolo[1,2-a]pyridazine-1,3(2H)-dione] | – | – | 71.2%
9 | CC(=O)c1ccc(-n2c(=O)n3n(c2=O)C2C(=CC3)C(C)(C)Oc3cc(N4CCC4)ccc32)cc1 (centres unmarked) [Example 141, 2-(4-acetylphenyl)-10-(azetidin-1-yl)-7,7-dimethyl-5,12b-dihydro-1H,7H-chromeno[4,3-c][1,2,4]triazolo[1,2-a]pyridazine-1,3(2H)-dione] | 94.2% | 7.2 µM | –
10 | CN(C)C(=O)Oc1ccc2c(c1)OC(C)(C)C1=CCn3c(=O)n(-c4ccc(C(C)(C)C)cc4)c(=O)n3C12 (centres unmarked) [Example 147, 2-(4-(tert-butyl)phenyl)-7,7-dimethyl-1,3-dioxo-2,3,5,12b-tetrahydro-1H,7H-chromeno[4,3-c][1,2,4]triazolo[1,2-a]pyridazin-10-yl dimethylcarbamate] | – | > 80 µM | –
11 | CC(=O)c1ccc(-n2c(=O)n3n(c2=O)C2C(=CC3)C(C)(C)Oc3cc(-c4cc(C)nn4C)ccc32)cc1 (centres unmarked) [Example 38, 2-(4-acetylphenyl)-10-(1,3-dimethyl-1H-pyrazol-5-yl)-7,7-dimethyl-5,12b-dihydro-1H,7H-chromeno[4,3-c][1,2,4]triazolo[1,2-a]pyridazine-1,3(2H)-dione] | – | 31.6 µM | –
12 | CC1(C)Oc2cc(OP(=O)(O)O)ccc2C2C1=CCn1c(=O)n(-c3ccc(C(F)(F)F)cc3)c(=O)n12 (centres unmarked) [Example 142, 7,7-dimethyl-1,3-dioxo-2-(4-(trifluoromethyl)phenyl)-2,3,5,12b-tetrahydro-1H,7H-chromeno[4,3-c][1,2,4]triazolo[1,2-a]pyridazin-10-yl dihydrogen phosphate] | – | 6.3 µM | –
13 | CN1CCN(c2ccc3c(c2)OC(C)(C)C2=CCn4c(=O)n(-c5ccc(F)cc5)c(=O)n4C23)CC1 (centres unmarked) [Example 50, 2-(4-fluorophenyl)-7,7-dimethyl-10-(4-methylpiperazin-1-yl)-5,12b-dihydro-1H,7H-chromeno[4,3-c][1,2,4]triazolo[1,2-a]pyridazine-1,3(2H)-dione] | – | 25.6 µM | –
14 | CC(=O)c1ccc(-n2c(=O)n3n(c2=O)C2C(=CC3)C(C)(C)Oc3cc(N4CCN(S(C)(=O)=O)CC4)ccc32)cc1 (centres unmarked) [Example 52, 2-(4-acetylphenyl)-7,7-dimethyl-10-(4-(methylsulfonyl)piperazin-1-yl)-5,12b-dihydro-1H,7H-chromeno[4,3-c][1,2,4]triazolo[1,2-a]pyridazine-1,3(2H)-dione] | – | 26.4 µM | –
15 | CN1CCN(c2ccc3c(c2)OC(C)(C)C2=CCn4c(=O)n(-c5ccc(C(C)(C)C)cc5)c(=O)n4C23)CC1 (centres unmarked) [Example 48, 2-(4-(tert-butyl)phenyl)-7,7-dimethyl-10-(4-methylpiperazin-1-yl)-5,12b-dihydro-1H,7H-chromeno[4,3-c][1,2,4]triazolo[1,2-a]pyridazine-1,3(2H)-dione] | – | 9.7 µM | –
16 | CC(=O)c1ccc(-n2c(=O)n3n(c2=O)C2C(=CC3)C(C)(C)Oc3cc(NCC(F)(F)F)ccc32)cc1 (centres unmarked) [Example 17, 2-(4-acetylphenyl)-7,7-dimethyl-10-((2,2,2-trifluoroethyl)amino)-5,12b-dihydro-1H,7H-chromeno[4,3-c][1,2,4]triazolo[1,2-a]pyridazine-1,3(2H)-dione] | – | 8.2 µM | –
17 | CNc1ccc2c(c1)OC(C)(C)C1=CCn3c(=O)n(-c4ccc(C(C)=O)cc4)c(=O)n3C12 (centres unmarked) [Example 32, 2-(4-acetylphenyl)-7,7-dimethyl-10-(methylamino)-5,12b-dihydro-1H,7H-chromeno[4,3-c][1,2,4]triazolo[1,2-a]pyridazine-1,3(2H)-dione] | 84.4% | 6.1 µM | –
18 | CC1(C)Oc2cc(OP(=O)(O)O)ccc2C2C1=CCn1c(=O)n(-c3ccc(F)cc3)c(=O)n12 (centres unmarked) [Example 143, 2-(4-fluorophenyl)-7,7-dimethyl-1,3-dioxo-2,3,5,12b-tetrahydro-1H,7H-chromeno[4,3-c][1,2,4]triazolo[1,2-a]pyridazin-10-yl dihydrogen phosphate] | – | 9.4 µM | –
19 | CC(=O)Nc1ccc2c(c1)OC(C)(C)C1=CCn3c(=O)n(-c4ccc(C(C)=O)cc4)c(=O)n3C12 (centres unmarked) [Example 3, N-(2-(4-acetylphenyl)-7,7-dimethyl-1,3-dioxo-2,3,5,12b-tetrahydroxy-1H,7H-chromeno[4,3-c][1,2,4]triazolo[1,2-a]pyridazin-10-yl)acetamide] | 16.9% | – | –
20 | CC(=O)c1ccc(-n2c(=O)n3n(c2=O)C2C(=CC3)C(C)(C)Oc3cc(-c4ccncc4)ccc32)cc1 (centres unmarked) [Example 43, 2-(4-acetylphenyl)-7,7-dimethyl-10-(pyridin-4-yl)-5,12b-dihydro-1H,7H-chromeno[4,3-c][1,2,4]triazolo[1,2-a]pyridazine-1,3(2H)-dione] | – | 19.2 µM | –
21 | CC1(C)Oc2cc(NC3COC3)ccc2C2C1=CCn1c(=O)n(-c3ccc(F)cc3)c(=O)n12 (centres unmarked) [Example 35, 2-(4-fluorophenyl)-7,7-dimethyl-10-(oxetan-3-ylamino)-5,12b-dihydro-1H,7H-chromeno[4,3-c][1,2,4]triazolo[1,2-a]pyridazine-1,3(2H)-dione] | 96.7% | 4.8 µM | –
22 | CC(=O)c1ccc(-n2c(=O)n3n(c2=O)C2C(=CC3)C(C)(C)Oc3c2cc(Cl)c(N)c3Cl)cc1 (centres unmarked) [Example 31, 2-(4-acetylphenyl)-10-amino-9,11-dichloro-7,7-dimethyl-5,12b-dihydro-1H,7H-chromeno[4,3-c][1,2,4]triazolo[1,2-a]pyridazine-1,3(2H)-dione] | 97.2% | 2 µM | –
23 | O=c1n(-c2ccccc2)c(=O)n2n1CC=C1C2c2ccc(O)cc2OC1(CF)CF (centres unmarked) [Example 1, 7,7-bis(fluoromethyl)-10-hydroxy-2-phenyl-5,12b-dihydro-1H,7H-chromeno[4,3-c][1,2,4]triazolo[1,2-a]pyridazine-1,3(2H)-dione] | 80.4% | – | –
24 | CC(C)(C)OC(=O)N1CCN(C(=O)c2ccc(-n3c(=O)n4n(c3=O)C3C(=CC4)C(C)(C)Oc4cc(O)ccc43)cc2)CC1 (centres unmarked) [Example 54, tert-butyl 4-(4-(10-hydroxy-7,7-dimethyl-1,3-dioxo-5,12b-dihydro-1H,7H-chromeno[4,3-c][1,2,4]triazolo[1,2-a]pyridazin-2(3H)-yl)benzoyl)piperazine-1-carboxylate] | – | 1.5 µM | –
25 | CC(=O)c1ccc(-n2c(=O)n3n(c2=O)C2C(=CC3)C(C)(C)Oc3c2cc(F)c(O)c3F)cc1 (centres unmarked) [Example 27, 2-(4-acetylphenyl)-9,11-difluoro-10-hydroxy-7,7-dimethyl-5,12b-dihydro-1H,7H-chromeno[4,3-c][1,2,4]triazolo[1,2-a]pyridazine-1,3(2H)-dione] | – | – | 29.9%
